From patent US20260297035A1, “PROTEIN KINASE INHIBITORS AND USES THEREOF” (DELiver Therapeutics, Inc., priority 2023, published 2026)
Structures can show the parent of a compound that is named as a salt.

Legend:
[1] = system: ABL1 E255K; details: role: cofactor; peptide substrate Tyr 02; read-out: ATP Km app; cited from earlier work
[2] = system: NTRK1 (TRKA); details: role: cofactor; peptide substrate Tyr 01; read-out: ATP Km app; cited from earlier work
[3] = system: ABL1 F317L; details: cited from earlier work
[4] = system: SRC; details: cited from earlier work
[5] = system: EPHA1; details: cited from earlier work
[6] = system: ROS1; details: cited from earlier work
[7] = system: ITK; details: role: cofactor; peptide substrate Tyr 01; read-out: ATP Km app; cited from earlier work
[8] = system: EPHB1; details: role: cofactor; peptide substrate Tyr 02; read-out: ATP Km app; cited from earlier work
[9] = system: RET; details: cited from earlier work
[10] = system: RET-Y791F; details: role: cofactor; peptide substrate Tyr 02; read-out: ATP Km app; cited from earlier work
[11] = system: TYK2; details: role: cofactor; peptide substrate Tyr 03; read-out: ATP Km app; cited from earlier work
[12] = system: EPHA8; details: role: cofactor; peptide substrate Tyr 02; read-out: ATP Km app; cited from earlier work
[13] = system: RET-V804L; details: role: cofactor; peptide substrate Tyr 02; read-out: ATP Km app; cited from earlier work
[14] = system: ABL2 (Arg); details: cited from earlier work
[15] = system: NTRK3 (TRKC); details: role: cofactor; peptide substrate Tyr 01; read-out: ATP Km app; cited from earlier work
[16] = system: AURKA (Aurora A); details: role: cofactor; peptide substrate Ser/Thr 01; read-out: ATP Km app; cited from earlier work
[17] = system: EPHA2; details: role: cofactor; peptide substrate Tyr 01; read-out: ATP Km app; cited from earlier work
[18] = system: AURKC (Aurora C); details: role: cofactor; peptide substrate Ser/Thr 19; read-out: ATP Km app; cited from earlier work
[19] = system: RET-A883F; details: role: cofactor; peptide substrate Tyr 04; read-out: ATP Km app; cited from earlier work
[20] = system: LCK; details: cited from earlier work
[21] = system: RET-S891A; details: role: cofactor; peptide substrate Tyr 06; read-out: ATP Km app; cited from earlier work
[22] = system: ABL1 F317I; details: role: cofactor; peptide substrate Tyr 02; read-out: ATP Km app; cited from earlier work
[23] = biological target: T1, ABL1 T315I (Homo sapiens, UniProt P00519, T315I); details: role: cofactor; peptide substrate Tyr 02; read-out: ATP Km app; cited from earlier work
T1 construct: The ABL1 variant polypeptides utilized contained the same polypeptide as the “isoahABL1(wt)” polypeptide except that each contained one corresponding amino acid substitution

[24] = system: BTK; details: cited from earlier work
[25] = system: RET-V804E; details: cited from earlier work
[26] = system: EPHB2; details: cited from earlier work
[27] = system: PTK2B (FAK2); details: cited from earlier work
[28] = biological target: ABL1(wt) (Homo sapiens, UniProt P00519); details: cited from earlier work
[29] = system: EPHA5; details: cited from earlier work
[30] = system: BMX; details: role: cofactor; peptide substrate Tyr 01; read-out: ATP Km app; cited from earlier work
[31] = system: JAK3; details: role: cofactor; peptide substrate Tyr 06; read-out: ATP Km app; cited from earlier work
[32] = system: ABL1 Y253F; details: role: cofactor; peptide substrate Tyr 02; read-out: ATP Km app; cited from earlier work
[33] = system: NTRK2 (TRKB); details: role: cofactor; peptide substrate Tyr 01; read-out: ATP Km app; cited from earlier work
[34] = system: SRC-N1; details: cited from earlier work
[35] = system: TXK; details: cited from earlier work
[36] = system: JAK1; details: role: cofactor; peptide substrate Tyr 06; read-out: ATP Km app; cited from earlier work
[37] = system: ABL1 G250E; details: role: cofactor; peptide substrate Tyr 02; read-out: ATP Km app; cited from earlier work
[38] = system: AURKB (Aurora B); details: role: cofactor; peptide substrate Ser/Thr 01; read-out: ATP Km app; cited from earlier work
[39] = system: JAK2; details: role: cofactor; peptide substrate Tyr 06; read-out: ATP Km app; cited from earlier work
[40] = system: TNK1; details: role: cofactor; peptide substrate Ser/Thr 13; read-out: ATP Km app; cited from earlier work
[41] = system: IMR90 fibroblasts, IL-6; assay: Senomorphic activity: IL-6 reduction (ELISA) in senescent IMR90 fibroblasts; assay type: cell-based, human; details: for IL-6 reduction potency compared with pacritinib: compared with control drug pacritinib
Method: Senomorphic activity of compounds were assessed by determining whether the compounds could inhibit the senescence-associated secretory phenotype (SASP) in senescent cells, which is associated with overproduction and secretion of pro-inflammatory factors. Although many of these factors are associated primarily with macrophages and monocytes, they can also be made by a variety of senescent and activated cell types, such as fibroblasts. Specifically, IMR90 fibroblasts are known to overproduce these factors, especially when rendered senescent.
(§1) In the assay, IMR90 fibroblasts were plated at a density of 3E6 cells in a T175 tissue culture (TC)-treated flask. The flasks were placed into a tissue culture incubator and cells were allowed to adhere to the bottom of the wells for 24 hours. After cell adherence, the TC-treated flasks containing the cells were placed into a MultiRad225 X-ray irradiator, where cells were exposed to 10 grays (Gy) of ionizing […] irradiation. After irradiation, flasks were returned to the tissue culture incubator for 7 days, refreshing the cell media every 3 days.
(§2) After the 7-day incubation period that allowed full senescence transformation, cells were detached from the TC-treated flasks using 0.25% trypsin-EDTA solution. Cells were then split, and two experiments were conducted simultaneously: (1) verification of senescence induction via β-galactosidase staining (a senescent cell marker) and (2) analysis of senomorphic activity of compounds.
For verification of senescence induction, 2.5E4 cells were plated in TC-treated 6-well plates. After overnight adherence to the TC-plates, cells were fixed and stained for β-galactosidase accumulation following the manufacturer's standard protocol (e.g., Millipore Sigma, Senescence Cells Histochemical Staining Kit, CS0030-1KT). Brightfield microscopy was used to image the cells and ImageJ software was used to calculate the percentage of senescent cells per well. Non-irradiated IM90 fibroblasts were used as a non-senescent control.
To test the senomorphic activity of compounds, 1E4 cells were plated in 96-well plates. After overnight adherence to the 96-well plates, compounds were added in half-log dilutions to the wells containing the cells. Compounds that were effective inhibitors of JAK2 and were not effective inhibitors of JAK1 were assayed (JAK2 selective inhibitors). Twenty-four hours after compounds were added, cell culture media was collected and analyzed by various enzyme linked immunosorbent assays (ELISAs) for the expression of SASP-associated cytokines, including IL-6, TGF-beta, and TNF-alpha. The manufacturer's protocol was followed for ELISA analysis (e.g., Abcam, Human IL-6 ELISA kit, ab178013). Cytokine levels were compared to untreated controls and reduction of cytokine production was plotted and calculated using GraphPad Prism analysis software.

[42] = system: IMR90 fibroblasts; assay: Relative viability (CellTiterGlo) of senescent IMR90 fibroblasts; assay type: cell-based, human; details: at IL-6 reducing concentrations
Method: as §1, §2
(§3) Cells also were measured for relative viability to generate cytotoxicity curves associated with the varying concentrations of compounds. […] LD50 values were measured by normalizing luminescence intensity to the lowest drug concentration. GraphPad Prism was used to plot and calculate LD50 values from the cytotoxic kill curves. Curves were fit to a non-linear regression model, with compound concentration vs. response and variable slope (four parameters).

[43] = as above; assay type: cell-based, human; details: human, senescent imr90 fibroblasts
Method: as §1, §2, §3

[44] = system: RET-V804M; details: control inhibitor; Tracer 236 at 5 nM; cited from earlier work
[45] = system: TNK2 (ACK); details: control inhibitor; Tracer 236 at 30 nM; cited from earlier work
[46] = system: RET-M918T; details: control inhibitor; Tracer 236 at 10 nM; cited from earlier work
[47] = system: DDR2-T654M; details: control inhibitor; Tracer 178 at 100 nM; cited from earlier work
[48] = system: TEC; details: control inhibitor; Tracer 178 at 1 nM; cited from earlier work
[49] = system: JAK2; details: cited from earlier work
[50] = role: cofactor, peptide substrate Tyr 02, read-out: ATP Km app
[51] = role: cofactor, peptide substrate Tyr 01, read-out: ATP Km app
[52] = control inhibitor, Tyr 02, ATP 10 μM
[53] = control inhibitor, Tyr02, ATP 25 uM
[54] = control inhibitor, Tyr 02, ATP 50 uM

Nc1ncnc2c1ncn2[C@@H]1O[C@H](COP(=O)(O)OP(=O)(O)OP(=O)(O)O)[C@@H](O)[C@H]1O [ATP]
Km [1]: 4.2 µM
Km [2]: 425 µM
Km [3, 50]: 14 µM
Km [4, 50]: 50 µM
Km [5, 50]: 18.5 µM
Km [6, 51]: 61.4 µM
Km [7]: 5.6 µM
Km [8]: 61.4 µM
Km [9, 50]: 11 µM
Km [10]: 12 µM
Km [11]: 23 µM
Km [12]: 123 µM
Km [13]: 5 µM
Km [14, 50]: 30 µM
Km [15]: 54 µM
Km [16]: 10 µM
Km [17]: 65.4 µM
Km [18]: 26 µM
Km [19]: 10 µM
Km [20, 50]: 45 µM
Km [21]: 8 µM
Km [22]: 15 µM
Km [23]: 2.8 µM
Km [24, 51]: 36 µM
Km ([25]; role: cofactor, peptide substrate Tyr 04, read-out: ATP Km app): 50 µM
Km [26, 50]: 66 µM
Km [27, 51]: 5 µM
Km [28, 50]: 12 µM
Km [29, 51]: 129 µM
Km [30]: 107 µM
Km [31]: 14 µM
Km [32]: 11.8 µM
Km [33]: 22 µM
Km [34, 50]: 50 µM
Km ([35]; role: cofactor, peptide substrate Tyr 06, read-out: ATP Km app): 96 µM
Km [36]: 87 µM
Km [37]: 5.4 µM
Km [38]: 81 µM
Km [39]: 31 µM
Km [40]: 237 µM

Cc1ccc(Nc2ncc3cccc(-c4ccc(F)cc4OC(C)C)c3n2)cc1N [Cmpd51, N1-(8-(4-fluoro-2-isopropoxyphenyl)quinazolin-2-yl)-4-methylbenzene-1,3-diamine hydrochloride]
IL-6 reduction (in words) [41]: potent IL-6 reduction at sub-toxic drug levels
inhibition at 0.0004 µM ([41]; Homo sapiens, IMR-90, 0.4 nM, 24 hours, read-out: IL-6 production reduction): 67.5%
inhibition at 1.25 µM ([41]; Homo sapiens, IMR-90, 1250 nM, 24 hours, read-out: IL-6 production reduction): 71.6%
IL-6 reduction potency compared with pacritinib [41]: more potent than the control drug pacritinib
cell toxicity (in words) [42]: without cell toxicity
viability ([43]; at 0.4 nM and 1250 nM): 100%

C=CC(=O)Nc1cc(Nc2ncc3cccc(-c4ccc(F)cc4OC(C)C)c3n2)ccc1C [Cmpd53, N-(5-((8-(4-fluoro-2-isopropoxyphenyl)quinazolin-2-yl)amino)-2-methylphenyl)acrylamide]
IL-6 reduction (in words) [41]: potent IL-6 reduction at sub-toxic drug levels
inhibition at 0.0008 µM ([41]; Homo sapiens, IMR-90, 0.8 nM, 24 hours, read-out: IL-6 production reduction): 82.2%
inhibition at 0.8 µM ([41]; Homo sapiens, IMR-90, 800 nM, 24 hours, read-out: IL-6 production reduction): 82.9%
IL-6 reduction potency compared with pacritinib [41]: more potent than the control drug pacritinib
cell toxicity (in words) [42]: without cell toxicity
viability ([43]; at 0.8 nM and 800 nM): 100%

CN[C@@H]1C[C@H]2O[C@@](C)([C@@H]1OC)n1c3ccccc3c3c4c(c5c6ccccc6n2c5c31)C(=O)NC4 [Staurosporine]
IC50 [44]: 1.02 nM
IC50 [3, 52]: 214 nM
IC50 [46]: 3.8 nM
IC50 ([25]; control inhibitor, Tyr 04, ATP 50 uM): 2.29 nM
IC50 ([27]; control inhibitor, Tyr 01, ATP 5 uM): 12 nM

COc1cc2ncnc(Nc3cccc(Cl)c3)c2cc1OC [Tyrphostin AG1478]
IC50 [4, 54]: 1650 nM
IC50 [14, 53]: 731 nM
IC50 [20, 54]: 631 nM
IC50 ([24]; control inhibitor, Tyr 01, ATP 25 uM): 1800 nM
IC50 [28, 52]: 326 nM
IC50 [34, 54]: 1050 nM

Cc1nc(Nc2ncc(C(=O)Nc3c(C)cccc3Cl)s2)cc(N2CCN(CCO)CC2)n1 [dasatinib]
IC50 [47]: 139 nM

N#CC[C@H](C1CCCC1)n1cc(-c2ncnc3[nH]ccc23)cn1 [ruxolitinib]
JAK2 selectivity [49]: not selective inhibitors of JAK2 PK

C[C@@H]1CCN(C(=O)CC#N)C[C@@H]1N(C)c1ncnc2[nH]ccc12 [tofacitinib]
JAK2 selectivity [49]: not selective inhibitors of JAK2 PK
